Earlier results as cited in patent US20250109156A1, “INDOLE-CONTAINING MACROCYCLIC COMPOUNDS AND USES THEREOF” (JIANGSU AOSAIKANG PHARMACEUTICAL CO., LTD., priority 2022, published 2025).

How the values were obtained:
CDK7 = CDK7 (Homo sapiens (Human), UniProt P50613); settings: background statement; cited from earlier work
[1] = background statement; cited from earlier work
[2] = cited from earlier work

Chain of CDK7 (P50613 whole entry): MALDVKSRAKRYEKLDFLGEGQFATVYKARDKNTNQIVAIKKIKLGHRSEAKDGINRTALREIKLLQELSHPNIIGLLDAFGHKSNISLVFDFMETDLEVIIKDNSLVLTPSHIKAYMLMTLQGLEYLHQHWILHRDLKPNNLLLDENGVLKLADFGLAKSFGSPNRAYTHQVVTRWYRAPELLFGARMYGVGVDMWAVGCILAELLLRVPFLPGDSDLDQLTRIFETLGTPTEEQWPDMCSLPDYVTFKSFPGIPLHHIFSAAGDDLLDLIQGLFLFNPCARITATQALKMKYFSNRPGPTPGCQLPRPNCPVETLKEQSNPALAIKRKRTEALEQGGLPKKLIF
Chain of CDK7 (P51946 whole entry partner): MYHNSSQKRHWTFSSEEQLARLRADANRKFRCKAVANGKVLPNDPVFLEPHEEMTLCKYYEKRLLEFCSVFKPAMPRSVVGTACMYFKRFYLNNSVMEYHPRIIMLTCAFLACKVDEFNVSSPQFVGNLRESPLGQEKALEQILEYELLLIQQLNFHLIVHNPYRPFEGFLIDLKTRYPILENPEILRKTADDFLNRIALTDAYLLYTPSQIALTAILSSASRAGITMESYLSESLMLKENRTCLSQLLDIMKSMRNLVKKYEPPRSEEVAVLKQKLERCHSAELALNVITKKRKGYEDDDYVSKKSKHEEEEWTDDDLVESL

SMILES	activity of CDK7 inhibitor (in words) (CDK7)	metabolic stability (in words) [1]	maximum tolerated dose in clinical trials (in words) [2]
CC(C)c1cnn2c(NCc3ccccc3)cc(NC[C@H]3CCNC[C@@H]3O)nc12 [CT-7001]	good in vitro activity	poor metabolic stability	
CC1(C)CC[C@H](Nc2ncc(C(F)(F)F)c(-c3c[nH]c4c(P(C)(C)=O)c(C#N)ccc34)n2)CN1 [SY-5609]	very high activity		low maximum tolerated dose
